# How the values were obtained:
# ALOMY [1] = test: greenhouse pre-emergence herbicidal test; format: in vivo, Alopecurus myosuroides; conditions: 125 g/ha
# Excerpt: (§1) The seeds of the test plants were sown separately for each species. For the pre-emergence treatment, the active ingredients, which had been suspended or emulsified in water, were applied directly after sowing by means of finely distributing nozzles. The containers were irrigated gently to promote germination and growth and subsequently covered with transparent plastic hoods until the plants had rooted. This cover caused uniform germination of the test plants, unless this had been impaired by the active ingredients. Depending on the species, the plants were kept at 10-25° C. or 20-35° C., respectively. The test period extended over 2 to 4 weeks. During this time, the plants were tended, and their response to the individual treatments was evaluated. Evaluation was carried out using a scale from 0 to 100. 100 means no emergence of the plants, or complete destruction of at least the aerial moieties, and 0 means no damage, or normal course of growth. A good herbicidal activity is given at values of at least 70 and a very good herbicidal activity is given at values of at least 85. The plants used in the greenhouse experiments were of the following species: [table]
# APESV = test: greenhouse pre-emergence herbicidal test; format: in vivo, Apera spica-venti; conditions: for control of APESV: 125 g/ha; for herbicidal activity: APESV, scale 0 to 100
# Excerpt: as §1
# ALOMY [2] = test: greenhouse post-emergence herbicidal test; format: in vivo, Alopecurus myosuroides; conditions: for herbicidal activity: ALOMY, scale 0 to 100; for control of ALOMY: 500 g/ha
# Excerpt: (§2) The seeds of the test plants were sown separately for each species. For the post-emergence treatment, the test plants were first grown to a height of 3 to 15 cm, depending on the plant habit, and only then treated with the active ingredients which had been suspended or emulsified in water. For this purpose, the test plants were either sown directly and grown in the same containers, or they were first grown separately as seedlings and transplanted into the test containers a few days prior to treatment. Depending on the species, the plants were kept at 10-25° C. or 20-35° C., respectively. The test period extended over 2 to 4 weeks. During this time, the plants were tended, and their response to the individual treatments was evaluated. Evaluation was carried out using a scale from 0 to 100. 100 means no emergence of the plants, or complete destruction of at least the aerial moieties, and 0 means no damage, or normal course of growth. A good herbicidal activity is given at values of at least 70 and a very good herbicidal activity is given at values of at least 85. The plants used in the greenhouse experiments were of the following species: [table]
# ECHCG [3] = test: greenhouse pre-emergence herbicidal test; format: in vivo, Echinocloa crus-galli; conditions: scale 0 to 100
# Excerpt: as §1
# AVEFA = test: greenhouse post-emergence herbicidal test; format: in vivo, Avena fatua; conditions: for control of AVEFA: 500 g/ha; for herbicidal activity: AVEFA, scale 0 to 100
# Excerpt: as §2
# ECHCG [4] = test: greenhouse post-emergence herbicidal test; format: in vivo, Echinocloa crus-galli; conditions: scale 0 to 100
# Excerpt: as §2
# AMARE = test: greenhouse post-emergence herbicidal test; format: in vivo, Amaranthus retroflexus; conditions: for control of AMARE: 500 g/ha; for herbicidal activity: 1000 g/ha, AMARE, scale 0 to 100
# Excerpt: as §2
# POAAN [5] = test: greenhouse post-emergence herbicidal test; format: in vivo, Poa annua; conditions: 2000 g/ha, scale 0 to 100
# Excerpt: as §2
# POAAN [6] = test: greenhouse pre-emergence herbicidal test; format: in vivo, Poa annua; conditions: 2000 g/ha, scale 0 to 100
# Excerpt: as §1
# AGSST [7] = test: greenhouse post-emergence herbicidal test; format: in vivo, Agrostis stolonifera; conditions: 2000 g/ha, scale 0 to 100
# Excerpt: as §2
# AGSST [8] = test: greenhouse pre-emergence herbicidal test; format: in vivo, Agrostis stolonifera; conditions: 2000 g/ha, scale 0 to 100
# Excerpt: as §1
# SETVI = test: greenhouse post-emergence herbicidal test; format: in vivo, Setaria viridis; conditions: 1000 g/ha, scale 0 to 100
# Excerpt: as §2
# MATIN = test: greenhouse post-emergence herbicidal test; format: in vivo, Matricaria inodora; conditions: 2000 g/ha, scale 0 to 100
# Excerpt: as §2
Compound,herbicidal activity (APESV; 1000 g/ha),herbicidal activity (ALOMY [2]; 1000 g/ha),herbicidal activity (ECHCG [3]; 1000 g/ha),control of AVEFA (AVEFA),herbicidal activity (ECHCG [4]; 1000 g/ha),herbicidal activity (APESV; 2000 g/ha),herbicidal activity (ALOMY [2]; 2000 g/ha),further results
"COC(=O)c1nc(C2CC2)ncc1-c1cc(C(F)(F)F)ccc1Cl [Ex.3, Methyl 5-[2-chloro-5-(trifluoromethyl)phenyl]-2-cyclopropyl-pyrimidine-4-carboxylate]",very good (a very good herbicidal activity is given at values of at least 85),very good (a very good herbicidal activity is given at values of at least 85),very good (a very good herbicidal activity is given at values of at least 85),85%,very good (a very good herbicidal activity is given at values of at least 85),–,–,control of ALOMY (ALOMY [1]): 85%; control of APESV (APESV): 90%; herbicidal activity (AVEFA; 1000 g/ha): very good (a very good herbicidal activity is given at values of at least 85)
"O=C(O)c1nc(C2CC2)ncc1-c1cc(C(F)(F)F)ccc1Cl [Ex.4, 5-[2-chloro-5-(trifluoromethyl)phenyl]-2-cyclopropyl-pyrimidine-4-carboxylic acid]",very good (a very good herbicidal activity is given at values of at least 85),very good (a very good herbicidal activity is given at values of at least 85),very good (a very good herbicidal activity is given at values of at least 85),90%,very good (a very good herbicidal activity is given at values of at least 85),–,–,control of ALOMY (ALOMY [1]): 90%; control of APESV (APESV): 100%; control of ALOMY (ALOMY [2]): 90%; control of AMARE (AMARE): 80%; herbicidal activity (AMARE): very good (a very good herbicidal activity is given at values of at least 85)
COC(=O)c1nc(C2CC2)ncc1-c1cc(C(F)(F)F)ccc1Br [Ex.5],–,–,–,–,–,–,–,herbicidal activity (POAAN [5]): very good (a very good herbicidal activity is given at values of at least 85); herbicidal activity (POAAN [6]): very good (a very good herbicidal activity is given at values of at least 85); herbicidal activity (AGSST [7]): very good (a very good herbicidal activity is given at values of at least 85); herbicidal activity (AGSST [8]): good (A good herbicidal activity is given at values of at least 70)
O=C(O)c1nc(C2CC2)ncc1-c1cc(C(F)(F)F)ccc1Br [Ex.6],very good (a very good herbicidal activity is given at values of at least 85),very good (a very good herbicidal activity is given at values of at least 85),very good (a very good herbicidal activity is given at values of at least 85),–,very good (a very good herbicidal activity is given at values of at least 85),–,–,herbicidal activity (SETVI): very good (a very good herbicidal activity is given at values of at least 85)
COC(=O)c1nc(C2CC2)ncc1-c1cc(C(F)F)ccc1Cl [Ex.7],very good (a very good herbicidal activity is given at values of at least 85),very good (a very good herbicidal activity is given at values of at least 85),very good (a very good herbicidal activity is given at values of at least 85),90%,very good (a very good herbicidal activity is given at values of at least 85),–,–,herbicidal activity (AVEFA; 1000 g/ha): very good (a very good herbicidal activity is given at values of at least 85)
O=C(O)c1nc(C2CC2)ncc1-c1cc(C(F)F)ccc1Cl [Ex.8],very good (a very good herbicidal activity is given at values of at least 85),very good (a very good herbicidal activity is given at values of at least 85),very good (a very good herbicidal activity is given at values of at least 85),90%,–,–,–,control of ALOMY (ALOMY [2]): 90%; herbicidal activity (SETVI): very good (a very good herbicidal activity is given at values of at least 85); control of AMARE (AMARE): 100%; herbicidal activity (AMARE): very good (a very good herbicidal activity is given at values of at least 85)
O=C(O)c1nc(C2CC2)ncc1-c1cc(C(F)(F)F)cc(Br)c1Br [Ex.9],–,–,–,–,–,good (A good herbicidal activity is given at values of at least 70),–,herbicidal activity (POAAN [5]): very good (a very good herbicidal activity is given at values of at least 85); herbicidal activity (POAAN [6]): very good (a very good herbicidal activity is given at values of at least 85); herbicidal activity (MATIN): very good (a very good herbicidal activity is given at values of at least 85)
COC(=O)c1nc(C2CC2)ncc1-c1cc(OC(F)(F)F)ccc1F [Ex.11],–,–,–,–,–,very good (a very good herbicidal activity is given at values of at least 85),very good (a very good herbicidal activity is given at values of at least 85),herbicidal activity (ECHCG [3]; 2000 g/ha): very good (a very good herbicidal activity is given at values of at least 85); herbicidal activity (AVEFA; 2000 g/ha): very good (a very good herbicidal activity is given at values of at least 85)
O=C(O)c1nc(C2CC2)ncc1-c1cc(OC(F)(F)F)ccc1F [Ex.12],–,–,–,–,–,very good (a very good herbicidal activity is given at values of at least 85),very good (a very good herbicidal activity is given at values of at least 85),herbicidal activity (AVEFA; 2000 g/ha): good (A good herbicidal activity is given at values of at least 70)
COC(=O)c1nc(C2CC2)ncc1-c1cc(C(F)(F)F)ccc1C [Ex.13],–,–,–,–,–,very good (a very good herbicidal activity is given at values of at least 85),very good (a very good herbicidal activity is given at values of at least 85),herbicidal activity (ECHCG [3]; 2000 g/ha): very good (a very good herbicidal activity is given at values of at least 85)
Cc1ccc(C(F)(F)F)cc1-c1cnc(C2CC2)nc1C(=O)O [Ex.14],–,–,–,–,–,very good (a very good herbicidal activity is given at values of at least 85),very good (a very good herbicidal activity is given at values of at least 85),herbicidal activity (ECHCG [3]; 2000 g/ha): very good (a very good herbicidal activity is given at values of at least 85); herbicidal activity (AVEFA; 2000 g/ha): very good (a very good herbicidal activity is given at values of at least 85); herbicidal activity (ECHCG [4]; 2000 g/ha): very good (a very good herbicidal activity is given at values of at least 85)

# Reference: patent US20200146289A1, “Herbicidal pyrimidine compounds” (BASF SE, priority 2017, published 2020)
